Data reported in patent US20220088103A1, “PEANUT STEM AND LEAF EXTRACT AND PREPARATION METHOD AND USE THEREOF” (INSTITUTE OF FOOD SCIENCE AND TECHNOLOGY, CHINESE ACADEMY …, priority 2019, published 2022).

Test system: sleep of mice
Assay: Effect on 24-hour sleep of mice (EEG and electromyograph recording)
Format: in vivo, Male Bal b/c mice
Details: standard substances dosed according to their identified contents in the extract; intragastric, D1 to D14; FIG. 3
Description: The BAL b/c mice is used as a model in the present invention, and the electrophysiological technology is adopted, wherein electrodes are implanted in the brain of the mice, and the brain wave changes of mice after drug administration is real time 24-hour monitored for 14 days, thereby determining that the functional active substances in the peanut stem and leaf extract provided by the present invention have a significant sleep promoting function.
Experiment of the effect of the peanut stem and leaf extract prepared in Example 1 on sleep of mice
The peanut stem and leaf extract prepared according to the method of Example 1 was used as an experimental drug, and the standard drugs were administered to the mice according to the identified contents of the substances such as naringenin-4,7′-dimethyl ether.
The experiment was divided into a control group, extract groups (three groups of low, medium and high doses), a positive control group and a functional factor group (four functional active substances). Male Bal b/c mice were used, 6 mice for each group.
The mice were anesthetized at abdominal cavity with chloral hydrate (4%) at 0.10 mL/10 g. After the pain reflex disappeared, the mice were fixed on a mouse brain stereotactic adapter, and the hair on the head of the mice was cut off and 75% alcohol was used to disinfect the skin, the skin was cut along the midline of the skull, and the subcutaneous tissue was separated to fully expose the skull. […] The electroencephalo-graph (EEG) electrodes were fixed on the skull with tissue glue and dental cement successively, and the EEG electrode was connected to a screw (fixed in the hole drilled on the skull) to touch the cerebral dura mater by a silver wire to record cortical EEG activity. The two silver wires connected to the myoelectric electrodes were inserted into the muscles on both sides of the neck of the mouse to record the myoelectric activity. The electrode base was then fixed to the skull with tissue glue and dental cement. Mice were injected with penicillin after surgery (measuring 80,000 units/day for three consecutive days). The mice were raised separately in a shielding box with constant temperature, constant humidity, sound insulation and electrostatic shielding function during the recovery period after surgery. The cables for recording EEG and myoelectricity were connected to the electrodes on the head of the mouse on the second day after surgery, and the mice were allowed to adapt for 7 days. […] The EEG and electromyograph of mice that recovered and adapted to the experimental environment began to be recorded from 8:00 in the morning for 24 hours, and this day was recorded as D0. […] The EEG and electromyograph were recorded on the D7 and D14, and the brain tissue was taken after gavage at 8:00 in the morning on D15.

Row | SMILES | sleep time of mice (24-hour sleep)
1 | COc1cc(O)ccc1C(=O)/C=C/c1ccc(O)cc1 [2′-O-methylisoliquiritigenin] | significantly improve
2 | COc1cc(/C=C/C(=O)O)ccc1O [ferulic acid] | significantly improve
3 | C=CC(C)(O)CCC=C(C)C (stereo not shown) [linalool] | significantly improve
4 | COc1ccc(C2CC(=O)c3c(O)cc(OC)cc3O2)cc1 (stereo not shown) [naringenin-4,7′-dimethyl ether] | significantly improve
